No end group written: not given here. *: point of attachment. Octanoyl = CCCCCCCC(=O)*
System: hospitalized animals (canines and felines) with poor physical conditions
Assay: Example 3-1: repeated dose of ghrelin (analyzed together with single dose animals), compiled by disease group
Type: in vivo
Design: key to Degree of anger or anxiety score after administration: 1 = calm/accustomed to staff … 5 = too violent to touch, bites
Details: for BUN: animals improved/animals evaluated / Body temperature: animals improved/animals evaluated / CPK: animals improved/animals evaluated / CRE: animals improved/animals evaluated / Degree of anger: animals improved/animals evaluated / GOT: animals improved/animals evaluated / GPT: animals improved/animals evaluated / PLT: animals improved/animals evaluated / Vigor: animals improved/animals evaluated / WBC: animals improved/animals evaluated / Respiratory rate: animals improved/animals evaluated / CRP: animals improved/animals evaluated: single or repeated dose; for Respiratory rate after administration: before administration 100/min; for GPT value after administration: before administration 1000 IU/L; for Activity (vigor) score after administration / Degree of anger or anxiety score after administration: example; for Activity (vigor) score after administration: scale 1-7; for Degree of anger or anxiety score after administration: before administration a score of 5, scale 1-5
Protocol: In these Examples, a canine-derived ghrelin (a peptide compound in which a side chain hydroxyl group of the serine residue at the 3rd position from the amino terminus is acylated with an n-octanoyl group in SEQ ID NO: 1) was used as ghrelin. The canine-derived ghrelin was chemically synthesized and then lyophilized, and a canine-derived ghrelin for administration containing 0.1, 0.3, 0.5, or 1 mg per vial of a canine-derived ghrelin was prepared.
To administer ghrelin to animals, the canine-derived ghrelin was dissolved to a concentration of 1 mg/2 mL in physiological saline and intravenously, subcutaneously, or intramuscularly injected after the dose was adjusted depending on the body weight.
The evaluation parameters used were activity (vigor), body temperature, hematology parameters (blood cell test values), serum biochemistry parameters (biochemical test values), the degree of anger or anxiety, and respiratory rate. […] The degree of anger or anxiety of an animal observed visually by an observer were also evaluated using the following criteria: 1. calm and accustomed to a health care professional, 2. able to be touched by but unaccustomed to a health care professional and restless, 3. wandering around or hiding in the kennel with anxiety, 4. able to be barely touched, and 5. too violent to be touched by a health care professional and tends to bite.
A canine-derived ghrelin was repeatedly administered intravenously or subcutaneously to each of the animals with poor physical conditions. The dose of intravenous administration was approximately 5 μg/kg or 10 μg/kg, and the dose of subcutaneous administration was approximately 100 μg/kg. The mean number of doses in repeated administration was approximately four times, and the maximum number of doses was 11 times. The administration period was one to six days.
Evaluation parameters evaluated before and after administration of ghrelin were appetite, quantity of meal, biochemical test values (GOT, GPT, BUN, CRE, CPK, CRP), blood cell test values (white blood cell [WBC], platelet [PLT]), body temperature, activity (vigor), skin, coat, wellness, the degree of anger or anxiety, respiratory rate, and others. These parameters were analyzed together with the results of the animals receiving a single dose (Examples 1 and 2). The analysis results were compiled by disease, such as renal dysfunction, tumor, fracture, and accident (see Table 3-1). Statistical analysis of values before and after administration was performed using a paired t-test.

[1] = fracture, accident, etc., 19 animals
[2] = fracture, accident, etc., *p < 0.05, **p < 0.01
[3] = gastrointestinal tract disease, 7 animals
[4] = genital disease, *p < 0.05, **p < 0.01
[5] = infection or parasitism, 15 animals
[6] = infection or parasitism, *p < 0.05, **p < 0.01
[7] = inflammatory disease, 13 animals
[8] = inflammatory disease, *p < 0.05, **p < 0.01
[9] = renal dysfunction, *p < 0.05, **p < 0.01

For “GSS (n-octanoyl) FLSPEHQKLQQRKESKKPPAKLQPR (GSS(Octanoyl)FLSPEHQKLQQRKESKKPPAKLQPR; listed as Canis familiaris) [ghrelin, chemically synthesized, lyophilized]”, the “BUN: animals improved/animals evaluated” value [1] was 6/7, the “Body temperature: animals improved/animals evaluated” value [1] was 5/7 and the “CPK: animals improved/animals evaluated” value [1] was 2/2. The “CRE: animals improved/animals evaluated” value [1] was 2/3, the “Degree of anger: animals improved/animals evaluated” value [1] was 6/10 and the “GOT: animals improved/animals evaluated” value [1] was 6/6. The “GPT: animals improved/animals evaluated” value [1] was 6/7, the “PLT: animals improved/animals evaluated” value [1] was 4/8 and the “Vigor: animals improved/animals evaluated” value [1] was 13/16. The “WBC: animals improved/animals evaluated” value [1] was 3/7, the “Respiratory rate: animals improved/animals evaluated” value (fracture, accident, etc., 19 animals, #respiratory rate was stabilized in 2 of 2 animals) was 2/2 and the “BUN: change after vs before administration (t-test)” value (shortened to “BUN: change”) [2] was “Decreased*”. The “Body temperature: change after vs before administration (t-test)” value (“Body temperature: change” below) [2] was “Decreased*”, the “CPK: change after vs before administration (t-test)” value [2] was “Decreased*” and the “Degree of anger: change after vs before administration (t-test)” value [2] was “Improved*”. For the same substance, the “GOT: change after vs before administration (t-test)” value [2] was “Decreased*”, the “GPT: change after vs before administration (t-test)” value [2] was “Decreased*” and the “Vigor: change after vs before administration (t-test)” value (shortened to “Vigor: change”) [2] was “Improved**”. For the same substance, the “BUN value after administration” value (fractures, accidents, etc., before administration 18.3 mg/dL) was 10.6 mg/dL, the “Body temperature after administration” value (fractures, accidents, etc., before administration 39.2° C.) was 38.0 °C and the “CPK value after administration” value (fractures, accidents, etc., before administration 42.4 IU/L) was 9.4 IU/L. For the same substance, the “Respiratory rate after administration” value (fractures, accidents, etc.) was 50 min⁻¹, the “GOT value after administration” value (fractures, accidents, etc., before administration 996 IU/L) was 22 IU/L and the “GPT value after administration” value (fractures, accidents, etc.) was 32 IU/L. The “Activity (vigor) score after administration” value (shortened to “Activity (vigor) score”) (fractures, accidents, etc., before administration a score of 1) was 3, the “Degree of anger or anxiety score after administration” value (fractures, accidents, etc.) was 1 and the “BUN: animals improved/animals evaluated” value [3] was 1/1. The “Body temperature: animals improved/animals evaluated” value [3] was 2/3, the “CPK: animals improved/animals evaluated” value [3] was 2/2 and the “Degree of anger: animals improved/animals evaluated” value [3] was 0/1. The “GOT: animals improved/animals evaluated” value [3] was 3/3, the “GPT: animals improved/animals evaluated” value [3] was 3/3 and the “PLT: animals improved/animals evaluated” value [3] was 0/1. The “Vigor: animals improved/animals evaluated” value [3] was 5/5, the “WBC: animals improved/animals evaluated” value [3] was 2/2 and the “Vigor: change” value (gastrointestinal tract disease, *p < 0.05, **p < 0.01) was “Improved*”. The “Activity (vigor) score” value (gastrointestinal tract diseases, before administration a score of 1) was 5, the “BUN: animals improved/animals evaluated” value (genital disease, 29 animals) was 3/3 and the “Body temperature: animals improved/animals evaluated” value (genital disease, 29 animals) was 11/11. For the same substance, the “CRE: animals improved/animals evaluated” value (genital disease, 29 animals) was 1/2, the “CRP: animals improved/animals evaluated” value (genital disease, 29 animals) was 5/5 and the “Degree of anger: animals improved/animals evaluated” value (genital disease, 29 animals) was 2/8. The “GOT: animals improved/animals evaluated” value (genital disease, 29 animals) was 3/3, the “GPT: animals improved/animals evaluated” value (genital disease, 29 animals) was 4/4 and the “PLT: animals improved/animals evaluated” value (genital disease, 29 animals) was 4/7. For the same substance, the “Respiratory rate: animals improved/animals evaluated” value (genital disease, 29 animals) was 1/1, the “Vigor: animals improved/animals evaluated” value (genital disease, 29 animals) was 13/15 and the “WBC: animals improved/animals evaluated” value (genital disease, 29 animals) was 5/7. The “BUN: change” value [4] was “Decreased*”, the “Body temperature: change” value [4] was “Decreased**” and the “CRP: change after vs before administration (t-test)” value [4] was “Decreased*”. The “Vigor: change” value [4] was “Improved**”, the “BUN value after administration” value (genital diseases, before administration 31.5 mg/dL) was 7.1 mg/dL and the “CRP value after administration” value (genital diseases, before administration 100 mg/dL) was 16 mg/dL. The “Body temperature after administration” value (genital diseases, before administration 40.1° C.) was 38.1 °C, the “Activity (vigor) score” value (genital diseases, before administration a score of 1) was 3 and the “BUN: animals improved/animals evaluated” value [5] was 2/2. The “Body temperature: animals improved/animals evaluated” value [5] was 3/3, the “CPK: animals improved/animals evaluated” value [5] was 1/1 and the “CRE: animals improved/animals evaluated” value [5] was 1/1. The “Degree of anger: animals improved/animals evaluated” value [5] was 0/2, the “GOT: animals improved/animals evaluated” value [5] was 1/2 and the “GPT: animals improved/animals evaluated” value [5] was 3/4. For the same substance, the “PLT: animals improved/animals evaluated” value [5] was 3/4, the “Respiratory rate: animals improved/animals evaluated” value [5] was 3/3 and the “Vigor: animals improved/animals evaluated” value [5] was 10/11. For the same substance, the “WBC: animals improved/animals evaluated” value [5] was 1/4, the “BUN: change” value [6] was “Decreased*” and the “Respiratory rate: change after vs before administration (t-test)” value [6] was “Improved*”. The “Vigor: change” value [6] was “Improved**”, the “BUN value after administration” value (infections and parasitism, before administration 23.4 mg/dL) was 16.4 mg/dL and the “Respiratory rate after administration” value (infections and parasitism) was 70 min⁻¹. The “Activity (vigor) score” value (infections and parasitism, before administration a score of 1) was 3, the “BUN: animals improved/animals evaluated” value [7] was 4/4 and the “Body temperature: animals improved/animals evaluated” value [7] was 5/6. The “CPK: animals improved/animals evaluated” value [7] was 1/1, the “CRE: animals improved/animals evaluated” value [7] was 0/2 and the “CRP: animals improved/animals evaluated” value [7] was 1/2. For the same substance, the “Degree of anger: animals improved/animals evaluated” value [7] was 2/5, the “GOT: animals improved/animals evaluated” value [7] was 3/4 and the “GPT: animals improved/animals evaluated” value [7] was 4/4. For the same substance, the “PLT: animals improved/animals evaluated” value [7] was 2/4, the “Vigor: animals improved/animals evaluated” value [7] was 9/9 and the “WBC: animals improved/animals evaluated” value [7] was 3/4. The “Respiratory rate: animals improved/animals evaluated” value (inflammatory disease, 13 animals, #respiratory rate was stabilized in 2 of 2 animals) was 2/2#, the “BUN: change” value [8] was “Decreased*” and the “Body temperature: change” value [8] was “Decreased*”. For the same substance, the “GOT: change after vs before administration (t-test)” value [8] was “Decreased*”, the “GPT: change after vs before administration (t-test)” value [8] was “Decreased*” and the “Vigor: change” value [8] was “Improved*”. For the same substance, the “BUN value after administration” value (inflammatory diseases, before administration 18.6 mg/dL) was 10.7 mg/dL, the “Body temperature after administration” value (inflammatory diseases, before administration 39.8° C.) was 38.7 °C and the “GOT value after administration” value (inflammatory diseases, before administration 149 IU/L) was 25.0 IU/L. The “GPT value after administration” value (inflammatory diseases) was 282 IU/L, the “Activity (vigor) score” value (inflammatory diseases, before administration a score of 1) was 3 and the “BUN: animals improved/animals evaluated” value (renal dysfunction, 10 animals) was 2/3. For the same substance, the “Body temperature: animals improved/animals evaluated” value (renal dysfunction, 10 animals) was 2/2, the “CRE: animals improved/animals evaluated” value (renal dysfunction, 10 animals) was 3/3 and the “Degree of anger: animals improved/animals evaluated” value (renal dysfunction, 10 animals) was 1/3. For the same substance, the “GOT: animals improved/animals evaluated” value (renal dysfunction, 10 animals) was 0/1, the “GPT: animals improved/animals evaluated” value (renal dysfunction, 10 animals) was 1/1 and the “PLT: animals improved/animals evaluated” value (renal dysfunction, 10 animals) was 4/5. For the same substance, the “Respiratory rate: animals improved/animals evaluated” value (renal dysfunction, 10 animals) was 1/1, the “Vigor: animals improved/animals evaluated” value (renal dysfunction, 10 animals) was 5/6 and the “WBC: animals improved/animals evaluated” value (renal dysfunction, 10 animals) was 5/5. The “CRE: change after vs before administration (t-test)” value [9] was “Decreased*”, the “PLT: change after vs before administration (t-test)” value [9] was “Increased**” and the “Vigor: change” value [9] was “Improved**”. For the same substance, the “WBC: change after vs before administration (t-test)” value [9] was “Decreased*”, the “Serum creatinine (CRE) value after administration” value (renal dysfunctions, before administration 3.2 mg/dL) was 1.3 mg/dL and the “White blood cell (WBC) count after administration” value (renal dysfunctions, before administration 324×10^2/μL) was 13900 µL⁻¹. For the same substance, the “Activity (vigor) score” value (renal dysfunctions, before administration a score of 2) was 3, the “BUN: animals improved/animals evaluated” value (tumor, 14 animals) was 2/4 and the “Body temperature: animals improved/animals evaluated” value (tumor, 14 animals) was 6/6. The “CRE: animals improved/animals evaluated” value (tumor, 14 animals) was 2/4, the “CRP: animals improved/animals evaluated” value (tumor, 14 animals) was 2/2 and the “Degree of anger: animals improved/animals evaluated” value (tumor, 14 animals) was 4/6. For the same substance, the “GOT: animals improved/animals evaluated” value (tumor, 14 animals) was 3/5, the “GPT: animals improved/animals evaluated” value (tumor, 14 animals) was 4/6 and the “PLT: animals improved/animals evaluated” value (tumor, 14 animals) was 3/6. For the same substance, the “Respiratory rate: animals improved/animals evaluated” value (tumor, 14 animals) was 1/1, the “Vigor: animals improved/animals evaluated” value (tumor, 14 animals) was 7/8 and the “WBC: animals improved/animals evaluated” value (tumor, 14 animals) was 3/6. The “Body temperature: change” value (tumor, *p < 0.05, **p < 0.01) was “Decreased*”, the “Degree of anger: change after vs before administration (t-test)” value (tumor, *p < 0.05, **p < 0.01) was “Improved*” and the “Vigor: change” value (tumor, *p < 0.05, **p < 0.01) was “Improved*”. For the same substance, the “Body temperature after administration” value (tumors, before administration 39.8° C.) was 38.6 °C, the “Activity (vigor) score” value (tumors, before administration a score of 3) was 6 and the “Degree of anger or anxiety score after administration” value (tumors) was 2.

Reference: patent US9078868B2, “Therapeutic agent for accelerating recovery of animal under medical treatment” (UNIVERSITY OF MIYAZAKI, priority 2010, dated 2015)
